Reference: patent publication US9656990B2, “Cathepsin cysteine protease inhibitors” (Merck Sharp & Dohme Corp., priority 2014, dated 2017)

Key:
human cathepsin F = biological target: T1, human cathepsin F (Homo sapiens, UniProt Q9UBX1); assay: Cathepsin F Assay; type: biochemical; settings: IP from dose response curve; Z-Phe-Arg-AMC substrate, pH 5.5; read-out: hCat F (IP (nM))
T1 sequence (Q9UBX1 271-484): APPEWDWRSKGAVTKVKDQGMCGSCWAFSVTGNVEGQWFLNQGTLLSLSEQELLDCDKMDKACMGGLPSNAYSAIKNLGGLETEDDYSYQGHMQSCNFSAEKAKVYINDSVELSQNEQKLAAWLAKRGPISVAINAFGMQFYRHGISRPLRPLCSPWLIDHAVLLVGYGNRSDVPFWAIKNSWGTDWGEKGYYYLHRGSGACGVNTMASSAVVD
How it was run: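 Human cathepsin F (10 nM) preincubated 15 min at room temperature with compounds in 50 mM MES pH 5.5, 2.5 mM EDTA, 2.5 mM DTT, 10% DMSO. Z-Phe-Arg-AMC (8 μM) added; AMC release read by fluorescence (Ex 360/Em 460 nm) over 20 min, inhibition fit to dose-response model.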

human cathepsin K = human cathepsin K (UniProt P43236, Y175D/V274L, species not given); assay: Cathepsin K Assay; type: biochemical; settings: IP from dose response curve; Z-Leu-Arg-AMC substrate, pH 5.5; read-out: hrbCat K (IP (nM))

Structure (SMILES)	IC50 (human cathepsin F)	IC50 (human cathepsin K)
N#CC1(NC(=O)[C@@H]2CCCC[C@H]2c2nn(-c3ccc(F)cc3)cc2-c2ccc(C(=O)N3CCC(O)CC3)cc2)CC1 [Example 90, (1R,2R)-N-(1-cyanocyclopropyl)-2-(1-(4-fluorophenyl)-4-(4-(4-hydroxypiperidine-1-carbonyl)phenyl)-1H-pyrazol-3-yl)cyclohexanecarboxamide]	1760 nM	8.01 nM
N#Cc1ccccc1-n1cc(-c2ccc(N3CCS(=O)(=O)CC3)cc2)c([C@@H]2CCCC[C@H]2C(=O)NC2(C#N)CC2)n1 [Example 91, (1R,2R)-N-(1-cyanocyclopropyl)-2-(1-(2-cyanophenyl)-4-(4-(1,1-dioxidothiomorpholino)phen-yl)-1H-pyrazol-3-yl)cyclohexanecarboxamide]	1020 nM	1.02 nM
COc1ccccc1-n1cc(-c2ccc(N3CCS(=O)(=O)CC3)cc2)c([C@@H]2CCCC[C@H]2C(=O)NC2(C#N)CC2)n1 [Example 92, (1R,2R)-N-(1-cyanocyclopropyl)-2-(4-(4-(1,1-dioxidothiomorpholino)phen-yl)-1-(2-methoxyphenyl)-1H-pyrazol-3-yl)cyclohexanecarboxamide]	484 nM	0.95 nM
CS(=O)(=O)N1CCN(C(=O)c2ccc(-c3cn(-c4ccc(F)cc4)nc3[C@@H]3CCCC[C@H]3C(=O)NC3(C#N)CC3)cc2)CC1 [Example 93, (1R,2R)-N-(1-cyanocyclopropyl)-2-(1-(4-fluorophenyl)-4-(4-(4-(methylsulfonyl)piperazine-1-carbonyl)phenyl)-1H-pyrazol-3-yl)cyclohexanecarboxamide]	2350 nM	5.02 nM
CS(=O)(=O)C1CN(c2ccc(-c3cn(-c4ccc(F)cc4)nc3[C@@H]3CCCC[C@H]3C(=O)NC3(C#N)CC3)cc2)C1 [Example 94, (1R,2R)-N-(1-cyanocyclopropyl)-2-(1-(4-fluorophenyl)-4-(4-(3-(methylsulfonyl)azetidin-1-yl)phenyl)-1H-pyrazol-3-yl)cyclohexanecarboxamide]	2780 nM	2.57 nM
N#CC1(NC(=O)[C@@H]2CCCC[C@H]2c2nn(-c3ccc(Cl)cc3)cc2-c2ccc(N3CCS(=O)(=O)CC3)cc2)CC1 [Example 95, (1R,2R)-2-(1-(4-chlorophenyl)-4-(4-(1,1-dioxidothiomorpholino)phen-yl)-1H-pyrazol-3-yl)-N-(1-cyanocyclopropyl)cyclohex-anecarboxamide]	402 nM	0.73 nM
CC(C)(O)c1cccc(-n2cc(-c3ccc(N4CCS(=O)(=O)CC4)cc3)c([C@@H]3CCCC[C@H]3C(=O)NC3(C#N)CC3)n2)c1 [Example 96, (1R,2R)-N-(1-cyanocyclopropyl)-2-(4-(4-(1,1-dioxidothiomorpholino)phen-yl)-1-(3-(2-hydroxypropan-2-yl)phenyl)-1H-pyrazol-3-yl)cyclohexanecarboxamide]	824 nM	1.27 nM
CC(C)(O)c1ccc(-n2cc(-c3ccc(N4CCS(=O)(=O)CC4)cc3)c([C@@H]3CCCC[C@H]3C(=O)NC3(C#N)CC3)n2)cc1 [Example 97, (1R,2R)-N-(1-cyanocyclopropyl)-2-(4-(4-(1,1-dioxidothiomorpholino)phen-yl)-1-(4-(2-hydroxypropan-2-yl)phenyl)-1H-pyrazol-3-yl)cyclohexanecarboxamide]	764 nM	0.8 nM
N#CC1(NC(=O)[C@@H]2CCCC[C@H]2c2nn(-c3ccccc3F)cc2-c2ccc(N3CCS(=O)(=O)CC3)cc2)CC1 [Example 98, (1R,2R)-N-(1-cyanocyclopropyl)-2-(4-(4-(1,1-dioxidothiomorpholino)phen-yl)-1-(2-fluorophenyl)-1H-pyrazol-3-yl)cyclohexanecarboxamide]	946 nM	0.91 nM
N#CC1(NC(=O)[C@@H]2CCCC[C@H]2c2nn(-c3cccc(Cl)c3)cc2-c2ccc(N3CCS(=O)(=O)CC3)cc2)CC1 [Example 99, (1R,2R)-2-(1-(3-chlorophenyl)-4-(4-(1,1-dioxidothiomorpholino)phen-yl)-1H-pyrazol-3-yl)-N-(1-cyanocyclopropyl)cyclohex-anecarboxamide]	379 nM	0.48 nM
N#Cc1ccc(-n2cc(-c3ccc(N4CCS(=O)(=O)CC4)cc3)c([C@@H]3CCCC[C@H]3C(=O)NC3(C#N)CC3)n2)cc1 [Example 100, (1R,2R)-N-(1-cyanocyclopropyl)-2-(1-(4-cyanophenyl)-4-(4-(1,1-dioxidothiomorpholino)phen-yl)-1H-pyrazol-3-yl)cyclohexanecarboxamide]	212 nM	0.87 nM
N#Cc1cccc(-n2cc(-c3ccc(N4CCS(=O)(=O)CC4)cc3)c([C@@H]3CCCC[C@H]3C(=O)NC3(C#N)CC3)n2)c1 [Example 101, (1R,2R)-N-(1-cyanocyclopropyl)-2-(1-(3-cyanophenyl)-4-(4-(1,1-dioxidothiomorpholino)phen-yl)-1H-pyrazol-3-yl)cyclohexanecarboxamide]	452 nM	0.99 nM
N#CC1(NC(=O)[C@@H]2CCCC[C@H]2c2nn(-c3ccccc3Cl)cc2-c2ccc(N3CCS(=O)(=O)CC3)cc2)CC1 [Example 102, (1R,2R)-2-(1-(2-chlorophenyl)-4-(4-(1,1-dioxidothiomorpholino)phen-yl)-1H-pyrazol-3-yl)-N-(1-cyanocyclopropyl)cyclohex-anecarboxamide]	643 nM	2.9 nM
Cc1cc(C#N)ccc1-n1cc(-c2ccc(N3CCS(=O)(=O)CC3)cc2)c([C@@H]2CCCC[C@H]2C(=O)NC2(C#N)CC2)n1 [Example 103, (1R,2R)-2-(1-(4-cyano-2-methylphenyl)-4-(4-(1,1-dioxidothiomorpholino)phen-yl)-1H-pyrazol-3-yl)-N-(1-cyanocyclopropyl)cyclohex-anecarboxamide]	622 nM	2.17 nM
N#Cc1ccc(-n2cc(-c3ccc(N4CCS(=O)(=O)CC4)cc3)c([C@@H]3CCCC[C@H]3C(=O)NC3(C#N)CC3)n2)c(Cl)c1 [Example 104, (1R,2R)-2-(1-(2-chloro-4-cyanophenyl)-4-(4-(1,1-dioxidothiomorpholino)phen-yl)-1H-pyrazol-3-yl)-N-(1-cyanocyclopropyl)cyclohex-anecarboxamide]	411 nM	2.02 nM
N#Cc1cc(Cl)ccc1-n1cc(-c2ccc(N3CCS(=O)(=O)CC3)cc2)c([C@@H]2CCCC[C@H]2C(=O)NC2(C#N)CC2)n1 [Example 105, (1R,2R)-2-(1-(4-chloro-2-cyanophenyl)-4-(4-(1,1-dioxidothiomorpholino)phen-yl)-1H-pyrazol-3-yl)-N-(1-cyanocyclopropyl)cyclohex-anecarboxamide]	1260 nM	3.23 nM
N#Cc1cc(F)ccc1-n1cc(-c2ccc(N3CCS(=O)(=O)CC3)cc2)c([C@@H]2CCCC[C@H]2C(=O)NC2(C#N)CC2)n1 [Example 106, (1R,2R)-2-(1-(2-cyano-4-fluorophenyl)-4-(4-(1,1-dioxidothiomorpholino)phen-yl)-1H-pyrazol-3-yl)-N-(1-cyanocyclopropyl)cyclohex-anecarboxamide]	1920 nM	2.88 nM
Cc1ccc(-n2cc(-c3ccc(N4CCS(=O)(=O)CC4)cc3)c([C@@H]3CCCC[C@H]3C(=O)NC3(C#N)CC3)n2)c(C#N)c1 [Example 107, (1R,2R)-2-(1-(2-cyano-4-methylphenyl)-4-(4-(1,1-dioxidothiomorpholino)phen-yl)-1H-pyrazol-3-yl)-N-(1-cyanocyclopropyl)cyclohex-anecarboxamide]	1400 nM	3 nM
N#CC1(NC(=O)[C@@H]2CCC(F)(F)C[C@H]2c2nn(-c3ccc(F)cc3)cc2-c2ccc(N3CCS(=O)(=O)CC3)cc2)CC1 [Example 108, (1R,2R)-N-(1-cyanocyclopropyl)-2-(4-(4-(1,1-dioxidothiomorpholino)phen-yl)-1-(4-fluorophenyl)-1H-pyrazol-3-yl)-4,4-difluorocyclohexanecarbox-amide]	1010 nM	2.32 nM
N#CC1(NC(=O)[C@@H]2CCCC[C@H]2c2nn(-c3ccc(C(O)(C(F)(F)F)C(F)(F)F)cc3)cc2-c2ccc(N3CCS(=O)(=O)CC3)cc2)CC1 [Example 109, (1R,2R)-N-(1-cyanocyclopropyl)-2-(4-(4-(1,1-dioxidothiomorpholino)phen-yl)-1-(4-(1,1,1,3,3,3-hexafluoro-2-hydroxypropan-2-yl)phenyl)-1H-pyrazol-3-yl)cyclohexanecarboxamide]	267 nM	2.67 nM
N#Cc1cc(-n2cc(-c3ccc(N4CCS(=O)(=O)CC4)cc3)c([C@@H]3CCCC[C@H]3C(=O)NC3(C#N)CC3)n2)ccc1F [Example 110, (1R,2R)-2-(1-(3-cyano-4-fluorophenyl)-4-(4-(1,1-dioxidothiomorpholino)phen-yl)-1H-pyrazol-3-yl)-N-(1-cyanocyclopropyl)cyclohex-anecarboxamide]	275 nM	0.83 nM
N#CC1(NC(=O)[C@@H]2CCCC[C@H]2c2nn(-c3ccc(OC(F)F)cc3)cc2-c2ccc(N3CCS(=O)(=O)CC3)cc2)CC1 [Example 111, (1R,2R)-N-(1-cyanocyclopropyl)-2-(1-(4-(difluoromethoxy)phenyl)-4-(4-(1,1-dioxidothiomorpholino)phen-yl)-1H-pyrazol-3-yl)cyclohexanecarboxamide]	392 nM	0.86 nM
